Experimental data from paper PMC6412019, “Discovery of NV-5138, the first selective Brain mTORC1 activator” (Scientific Reports, 2019).

Experiments:
[1] = cited from earlier work
[2] = test system: Synapsin1, GluR1 and PSD95; assay: Synaptic proteins in rat prefrontal cortex synaptoneurosomes (immunoblot); type: in vivo; details: 24 h after single 160 mg/kg PO
Description: We investigated the activation of mTORC1 in the brain further by determining the time course of mTORC1 activation following a single administration of NV-5138. […] The decrease in mTORC1 signaling in the NV-5138 treated group 24 h following administration while significant was not consistently observed. […] It should be noted that while the activation of mTORC1 in the prefrontal cortex correlated with compound exposure, the increased expression of synaptic proteins was observed well after compound levels have dropped and mTORC1 activity was back to baseline/vehicle levels.
After compound administration, animals were sacrificed by decapitation using a guillotine, immediately Specific regions of the brain were quickly microdissected, tissues collected, and flash frozen in liquid nitrogen. Peripheral tissues and all brain were homogenized using MP homogenizer in Lysis Buffer (Cell lysis buffer: 1% Triton X-100, 50 mM HEPES pH 7.4, 100 mM NaCl, 2 mM EDTA, 10 mM Beta-glycerophosphate, 10 mM Sodium pyrophosphate, and 1 protease inhibitor) at 4 °C. Synaptic proteins and mTORC1 analyses in each brain region were conducted on crude synaptoneurosome preparations as previously described. Equal amounts of total protein from each sample were denatured and, resolved by SDS-PAGE. Membranes were imaged using the LI-COR imaging system. […]

[3] = test system: panel of 107 adverse drug effect targets; assay: Eurofins/Cerep off-target selectivity panel; details: up to 300 µM; threshold >50% binding/response; incl. AMPA, kainate and NMDA receptor isoforms
Description: (§1) While mTORC1 activation by NV-5138 appears dependent upon an intact Sestrins/GATOR2 pathway and not upon protein incorporation or transamination by BCAT, NV-5138 was tested for off-target activity in the Eurofins/Cerep panel of over 100 potential targets. The selectivity panel included AMPA, kainate and NMDA receptor isoforms (Supplementary Table 2a–c). […] As observed in the Eurofins/Cerep panel, there was no effect of NV-5138 at 300 µM final concentration (data not shown).
NV-5138 was tested in duplicate at a concentration of 300 µM for potential interaction with a panel of 107 adverse drug effect targets including 21 transporters, receptors, ion channels and enzymes expressed in the CNS (Eurofins Pharma Discovery Services). The threshold to exclude a significant interaction was set as a binding/response of >50%.

[4] = target: T1, Sestrin2/GATOR2 interaction (Homo sapiens, UniProt P58004); assay: Cell-free Sesn2/WDR24 (GATOR2) interaction assay on immunoprecipitates; type: biochemical; details: added to immunoprecipitated complexes from amino acid-starved cells for 10 min
T1 construct: expressed in transfected cells; host or cells: HEK-293T stably expressing Flag-WDR24; Sestrin2 and the other GATOR2 subunits endogenous
T1 sequence (P58004 1-480): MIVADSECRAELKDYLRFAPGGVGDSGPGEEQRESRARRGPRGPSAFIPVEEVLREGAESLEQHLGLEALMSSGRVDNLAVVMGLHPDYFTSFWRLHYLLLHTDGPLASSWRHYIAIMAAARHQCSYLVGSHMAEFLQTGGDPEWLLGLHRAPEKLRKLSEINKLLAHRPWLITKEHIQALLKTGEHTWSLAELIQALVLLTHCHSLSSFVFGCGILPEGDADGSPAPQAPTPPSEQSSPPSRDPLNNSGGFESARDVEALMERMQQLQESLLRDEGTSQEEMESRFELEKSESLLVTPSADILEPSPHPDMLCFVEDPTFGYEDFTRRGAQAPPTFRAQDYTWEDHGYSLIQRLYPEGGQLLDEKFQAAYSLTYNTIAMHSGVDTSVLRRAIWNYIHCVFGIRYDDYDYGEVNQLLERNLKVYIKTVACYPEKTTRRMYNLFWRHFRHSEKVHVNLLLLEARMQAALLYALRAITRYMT
Description: (§2) Expression of flag-WDR24 allows for immunoprecipitation of the Sestrin2/GATOR2 complex from amino acid-starved cells with an anti-flag antibody. […] Finally, to determine whether Sestrins and the GATOR pathway are required for NV-5138 activity, HEK-293T cells null for all three Sestrin isoforms or the GATOR1 component Nprl3 were obtained.
(§3) Cell lysates were prepared as previously described. Lysates were cleared by centrifugation at 13,200 rpm at 4 °C for 8 min. For anti-FLAG IPs, the FLAG-M2 affinity gel was added to approximately 2 mg of lysates and incubated with rotation for 3 h at 4 °C. Following IP, the beads were washed one time with Triton wash buffer containing 500 mM NaCl. […] After compound incubation, IPs were collected by centrifugation. Immunoprecipitated proteins were denatured and, resolved by SDS-PAGE. Membranes were imaged using the LI-COR imaging system. Reagents and antibodies used are listed in Supplementary Information.

[5] = test system: NMDA receptors expressed in Xenopus laevis oocytes; assay: Two electrode voltage-clamp electrophysiology of NMDA receptors in oocytes; type: cell-based; details: 300 µM final concentration; data not shown
Description: as §1

[6] = target: T1, Sestrin2/GATOR2 interaction; assay: Sestrin2/GATOR2 interaction in intact flag-WDR24 HEK-293T cells; type: cell-based; details: leucine-starved 50 min, compound 10 min
Description: as §2
All cell lines were cultured in DMEM supplemented with 10% FBS and maintained at 37 °C and 5% CO2. HEK-293T cells stably expressing Flag-WDR24 was generated as previously described. […] Details of reagent used for cell culture can be found in Supplementary Information.
as §3

[7] = Pharmacokinetic analysis in rats; type: in vivo, rat
Description: To determine oral bioavailability, male SD rats were dosed I.V at 1 mg/kg and PO at 5 mg/kg with NV-5138 in 0.5% MC/0. 1% Tween80 (n = 3 per time point per group). Rats were fasted overnight for PO group and were given free access to food and water for IV group. After dosing, tail-vein blood was collected at the indicated time points into K2EDTA tubes and centrifuged at 2,000 g for 5 min to collect plasma. To measure levels of NV-5138 in the brain and plasma, rats were dosed PO at 160 mg/kg (n = 5), sacrificed 1 h after dosing via decapitation and trunk blood and one hemisphere of the brain was collected. Plasma was combined with acetonitrile containing pregabalin as an internal standard and centrifuged, brain and heart samples were homogenized directly into acetonitrile. Levels of NV-5138 were quantified via LC-MS/MS. WinNonlin V 6.2 statistics software (Pharsight Corporation, California, USA) was used to generate pharmacokinetics parameters using non-compartmental model.

Compound	cerebrospinal fluid (CSF) levels as fraction of plasma concentrations [1]	synaptic proteins Synapsin1, GluR1 and PSD95 versus vehicle [2]	off-target activity in selectivity panel [3]	disruption of Sestrin2/GATOR2 interaction, cell-free [4]	functional inhibition of maximally-activated NMDA receptors [5]	disruption of GATOR2-bound Sestrin2 in intact cells [6]	bioavailability ([7]; male, SD, rat, plasma, oral, 5 mg/kg, male SD rats, IV 1 mg/kg and PO 5 mg/kg) [%]	half-life ([7]; male, SD, rat, plasma, other: intravenous and oral, rats, intravenous and oral dosing, read-out: elimination half-life in plasma (converted)) [h]	brain versus plasma exposure ([7]; rats, 160 mg/kg PO, 160 mg/kg)
CC(C)C[C@H](N)C(=O)O [Leucine, L-leucine, reference compound]	5–10%	–	–	–	–	–	–	–	–
CC(C)(C[C@H](N)C(=O)O)C(F)F [NV-5138, (S)-2-amino-5,5-difluoro-4,4-dimethylpentanoic acid]	–	significant increase	no activity against any target	rapidly disrupts the Sestrin2/GATOR2 interaction in a dose-dependent manner	no effect	resulted in disruption of GATOR2-bound Sestrin2	100	~3	brain and plasma concentrations of NV-5138 are equal
